According to PubChem BioAssay AID330 (DTP/NCI, 2004):
Where “and” joins values, the source holds several entries; their conditions need not be identical. Identical values can stand only once. Inconclusive results and toxic doses are left out.

Test system: P388 leukemia ip, CD2F1 mice, survival T/C
Assay: NCI In Vivo Anticancer Drug Screen. Data for tumor model P388 Leukemia (intraperitoneal) in CD2F1 (CDF1) mice
Conditions: endpoint: median survival time, higher = longer survival
Procedure, shortened: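 Mice carrying the transplanted tumor received test compound or vehicle. Survival was recorded in each group, and the value is the treated-group measurement divided by that of the vehicle-treated control group.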

[1] = dose: 1.25 mg/kg/injection, schedule: Q01DX009 (ip), vehicle: saline
[2] = dose: 2.5 mg/kg/injection, schedule: Q01DX009 (ip), vehicle: saline
[3] = dose: 5.0 mg/kg/injection, schedule: Q01DX009 (ip), vehicle: saline
[4] = dose: 60.0 mg/kg/injection, schedule: Q01DX005 (ip), vehicle: Klucel (hydroxypropylcellulose) (HPC)
[5] = dose: 120.0 mg/kg/injection, schedule: Q01DX005 (ip), vehicle: Klucel (hydroxypropylcellulose) (HPC)
[6] = dose: 50.0 mg/kg/injection, schedule: Q01DX005 (ip), vehicle: saline with Tween-80
[7] = dose: 100.0 mg/kg/injection, schedule: Q01DX005 (ip), vehicle: saline with Tween-80
[8] = dose: 100.0 mg/kg/injection, schedule: Q04DX003 (ip), vehicle: saline
[9] = dose: 200.0 mg/kg/injection, schedule: Q04DX003 (ip), vehicle: saline
[10] = dose: 200.0 mg/kg/injection, schedule: Q01DX005 (ip), vehicle: saline with Tween-80
[11] = dose: 50.0 mg/kg/injection, schedule: Q01DX009 (ip), vehicle: saline with Tween-80
[12] = dose: 100.0 mg/kg/injection, schedule: Q01DX009 (ip), vehicle: saline with Tween-80
[13] = dose: 240.0 mg/kg/injection, schedule: Q01DX005 (ip), vehicle: Klucel (hydroxypropylcellulose) (HPC)

CC(=O)O[C@@H]1[C@H](C)[C@@H]2CC(=O)O[C@@H]3[C@H](OC(=O)C=C(C)C)[C@H]4C(C)=CC(=O)[C@@H](OC(C)=O)[C@]4(C)[C@H]4[C@@]1(O)OC[C@@]342
T/C (dose: 1.25 mg/kg/injection, schedule: Q01DX009 (ip), vehicle: Klucel (hydroxypropylcellulose) (HPC)): 104 % of control
T/C (dose: 2.5 mg/kg/injection, schedule: Q01DX009 (ip), vehicle: Klucel (hydroxypropylcellulose) (HPC)): 107 % of control
T/C (dose: 5.0 mg/kg/injection, schedule: Q01DX009 (ip), vehicle: Klucel (hydroxypropylcellulose) (HPC)): 107 % of control
T/C (dose: 10.0 mg/kg/injection, schedule: Q01DX009 (ip), vehicle: Klucel (hydroxypropylcellulose) (HPC)): 107 % of control

COc1cccc2c1C(=O)c1c(O)c3c(c(O)c1C2=O)C[C@@](O)(C(C)=O)C[C@@H]3OC1CC(N)C(OC2CC(N)C(OC)C(C)O2)C(C)O1 (stereo partly specified)
T/C (dose: 3.13 mg/kg/injection, schedule: Q04DX003 (ip), vehicle: water): 110 % of control and 115 % of control
T/C (dose: 6.25 mg/kg/injection, schedule: Q04DX003 (ip), vehicle: water): 119 % of control and 123 % of control
T/C (dose: 50.0 mg/kg/injection, schedule: Q04DX003 (ip), vehicle: water): 112 % of control

COc1cc(N(CCCl)CCCl)c(OC)cc1/C=N\Nc1nncn1N
T/C (dose: 0.25 mg/kg/injection, schedule: Q01DX009 (ip), vehicle: saline): 95 % of control
T/C (dose: 0.5 mg/kg/injection, schedule: Q01DX009 (ip), vehicle: saline): 104 % of control
T/C (dose: 0.63 mg/kg/injection, schedule: Q04DX003 (ip), vehicle: saline): 100 % of control
T/C [1]: 154 % of control
T/C (dose: 1.25 mg/kg/injection, schedule: Q04DX003 (ip), vehicle: saline): 100 % of control
T/C [2]: 154 % of control
T/C (dose: 2.5 mg/kg/injection, schedule: Q04DX003 (ip), vehicle: saline): 107 % of control
T/C [3]: 186 % of control
T/C (dose: 5.0 mg/kg/injection, schedule: Q04DX003 (ip), vehicle: saline): 123 % of control

O=C1C(N=Nc2ccc(Br)cc2)Sc2nc3ccccc3n21 (stereo unspecified)
T/C [4]: 89 % of control
T/C [5]: 89 % of control

ClCCN1c2ccccc2Sc2ccc3ccccc3c21
T/C [6]: 89 % of control
T/C [7]: 93 % of control

COc1ccc(C(=O)c2ncccc2C)cc1OC
T/C (dose: 50.0 mg/kg/injection, schedule: Q01DX009 (ip), vehicle: other): 95 % of control
T/C (dose: 100.0 mg/kg/injection, schedule: Q01DX009 (ip), vehicle: other): 99 % of control
T/C (dose: 200.0 mg/kg/injection, schedule: Q01DX009 (ip), vehicle: other): 95 % of control

COC(=O)/C=C\C(=O)O
T/C (dose: 50.0 mg/kg/injection, schedule: Q04DX003 (ip), vehicle: saline): 100 % of control
T/C [8]: 110 % of control
T/C [9]: 120 % of control

Nc1nc2c(cnn2C2CCCO2)c(=O)[nH]1 (stereo unspecified)
T/C (dose: 100.0 mg/kg/injection, schedule: Q01DX001 (ip), vehicle: saline with Tween-80): 100 % of control
T/C (dose: 200.0 mg/kg/injection, schedule: Q01DX001 (ip), vehicle: saline with Tween-80): 106 % of control
T/C (dose: 400.0 mg/kg/injection, schedule: Q01DX001 (ip), vehicle: saline with Tween-80): 96 % of control

COc1oc(C2C/C(=C/C(C)=C/C(C)=C/C(C)=C/c3ccc([N+](=O)[O-])cc3)CO2)c(C)c(=O)c1C (stereo unspecified)
T/C (dose: 0.25 mg/kg/injection, schedule: Q01DX005 (ip), vehicle: saline): 116 % of control
T/C (dose: 0.5 mg/kg/injection, schedule: Q01DX005 (ip), vehicle: saline): 107 % of control
T/C (dose: 1.0 mg/kg/injection, schedule: Q01DX005 (ip), vehicle: saline): 113 % of control
T/C (dose: 2.0 mg/kg/injection, schedule: Q01DX005 (ip), vehicle: saline): 121 % of control

CCOc1c(N=Nc2ccc(Cl)cc2)c(-c2ccccc2)nn1C(=S)S
T/C [6]: 97 % of control
T/C [7]: 99 % of control
T/C [10]: 91 % of control

C=C1C2CCC3C4(C)CC(OC5OC(CO)C(OS(=O)(=O)O)C(OS(=O)(=O)O)C5OC(=O)CC(C)C)CC(C(=O)O)(C(=O)O)C4CCC3(C2)C1O (stereo unspecified)
T/C [1]: 117 % of control
T/C [2]: 117 % of control
T/C [3]: 114 % of control

CCN(CC)Cc1cc(C)c(O)c(N=Nc2ccc3c(c2)c2ccccc2n3CC)c1C
T/C [11]: 102 % of control
T/C [12]: 110 % of control
T/C (dose: 200.0 mg/kg/injection, schedule: Q01DX009 (ip), vehicle: saline with Tween-80): 101 % of control

Nc1c[nH]c(=S)s1
T/C (dose: 25.0 mg/kg/injection, schedule: Q01DX009 (ip), vehicle: saline with Tween-80): 116 % of control
T/C [11]: 114 % of control
T/C [12]: 94 % of control

CC1(C)OC2OCCC(N=[N+]=[N-])C2O1 (stereo unspecified)
T/C [6]: 96 % of control
T/C [7]: 96 % of control
T/C [10]: 94 % of control

CCOC(=O)NOCOC
T/C (dose: 50.0 mg/kg/injection, schedule: Q01DX009 (ip), vehicle: saline): 115 % of control
T/C (dose: 100.0 mg/kg/injection, schedule: Q01DX009 (ip), vehicle: saline): 114 % of control
T/C (dose: 200.0 mg/kg/injection, schedule: Q01DX009 (ip), vehicle: saline): 109 % of control

c1cc2c3c(cccc3c1)C(C1Cc3cccc4cccc1c34)C2 (stereo unspecified)
T/C (dose: 50.0 mg/kg/injection, schedule: Q01DX009 (ip), vehicle: Klucel (hydroxypropylcellulose) (HPC)): 97 % of control
T/C (dose: 100.0 mg/kg/injection, schedule: Q01DX009 (ip), vehicle: Klucel (hydroxypropylcellulose) (HPC)): 100 % of control
T/C (dose: 200.0 mg/kg/injection, schedule: Q01DX009 (ip), vehicle: Klucel (hydroxypropylcellulose) (HPC)): 88 % of control

Cc1nn(-c2ccccc2)c(SC(C)(C)C)c1C=NCCN=Cc1c(C)nn(-c2ccccc2)c1SC(C)(C)C
T/C (dose: 3.75 mg/kg/injection, schedule: Q01DX005 (ip), vehicle: Klucel (hydroxypropylcellulose) (HPC)): 100 % of control
T/C (dose: 7.5 mg/kg/injection, schedule: Q01DX005 (ip), vehicle: Klucel (hydroxypropylcellulose) (HPC)): 98 % of control
T/C (dose: 15.0 mg/kg/injection, schedule: Q01DX005 (ip), vehicle: Klucel (hydroxypropylcellulose) (HPC)): 100 % of control

COC(=O)CC1SC(=S)N(Cc2ccc(Cl)cc2)C1=O (stereo unspecified)
T/C [4]: 94 % of control
T/C [5]: 90 % of control
T/C [13]: 90 % of control

Cc1cc(O)c2c(c1)C(=O)C(c1c(C)cc3c(c1O)C(=O)C1OC1C3=O)=CC2=O (stereo unspecified)
T/C (dose: 0.78 mg/kg/injection, schedule: Q01DX005 (ip), vehicle: Klucel (hydroxypropylcellulose) (HPC)): 91 % of control
T/C (dose: 1.56 mg/kg/injection, schedule: Q01DX005 (ip), vehicle: Klucel (hydroxypropylcellulose) (HPC)): 106 % of control
T/C (dose: 3.12 mg/kg/injection, schedule: Q01DX005 (ip), vehicle: Klucel (hydroxypropylcellulose) (HPC)): 113 % of control
T/C (dose: 6.25 mg/kg/injection, schedule: Q01DX005 (ip), vehicle: Klucel (hydroxypropylcellulose) (HPC)): 100 % of control

COc1ccc(C(=O)N2N=C(C)C(C)(C)C2(C)O)cc1 (stereo unspecified)
T/C [4]: 104 % of control
T/C [5]: 109 % of control
T/C [13]: 104 % of control

CC1(C)OC(=O)C(=Cc2ccc[nH]2)C(=O)O1
T/C (dose: 50.0 mg/kg/injection, schedule: Q01DX005 (ip), vehicle: Klucel (hydroxypropylcellulose) (HPC)): 98 % of control
T/C (dose: 100.0 mg/kg/injection, schedule: Q01DX005 (ip), vehicle: Klucel (hydroxypropylcellulose) (HPC)): 105 % of control
T/C (dose: 200.0 mg/kg/injection, schedule: Q01DX005 (ip), vehicle: Klucel (hydroxypropylcellulose) (HPC)): 107 % of control

Cc1ccccc1C(=Nc1ccccc1)Oc1ccccc1[N+](=O)[O-]
T/C [8]: 100 % of control
T/C [9]: 100 % of control
T/C (dose: 400.0 mg/kg/injection, schedule: Q04DX003 (ip), vehicle: saline): 100 % of control

CCn1c2ccccc2c2ccc(N=Nc3ccccc3)cc21
T/C (dose: 100.0 mg/kg/injection, schedule: Q04DX003 (ip), vehicle: Klucel (hydroxypropylcellulose) (HPC)): 100 % of control
T/C (dose: 200.0 mg/kg/injection, schedule: Q04DX003 (ip), vehicle: Klucel (hydroxypropylcellulose) (HPC)): 100 % of control
T/C (dose: 400.0 mg/kg/injection, schedule: Q04DX003 (ip), vehicle: Klucel (hydroxypropylcellulose) (HPC)): 105 % of control
